Results taken from PMC10698194 (Nature Communications, 2023).
Values joined by “and” are separate entries in the source; they are usually repeats but may differ in a detail not shown here. Equal values may be shown once. Read-outs that look alike come from different tables or passages of the source. Bridge positions count the residues as written; N and C are the ends. Square brackets hold non-standard residues; d marks the D form. Peptide text beside a SMILES is read from it. * marks the point of attachment. X1 = C=CCN1CC[C@]23c4c5ccc(O)c4O[C@H]2[C@H](N*)CC[C@@]3(O)[C@H]1C5

What was measured:
mouse MOR = target: T1, mouse MOR (Mus musculus, UniProt P42866); assay: Schild regression vs DAMGO in cAMP assay, HEK293 cells; format: cell-based; settings: for log (A'/A-1): Schild plot Figure S14c; for average functional affinity: from pA2
T1 construct: expressed in transfected cells
T1 sequence (P42866 whole entry): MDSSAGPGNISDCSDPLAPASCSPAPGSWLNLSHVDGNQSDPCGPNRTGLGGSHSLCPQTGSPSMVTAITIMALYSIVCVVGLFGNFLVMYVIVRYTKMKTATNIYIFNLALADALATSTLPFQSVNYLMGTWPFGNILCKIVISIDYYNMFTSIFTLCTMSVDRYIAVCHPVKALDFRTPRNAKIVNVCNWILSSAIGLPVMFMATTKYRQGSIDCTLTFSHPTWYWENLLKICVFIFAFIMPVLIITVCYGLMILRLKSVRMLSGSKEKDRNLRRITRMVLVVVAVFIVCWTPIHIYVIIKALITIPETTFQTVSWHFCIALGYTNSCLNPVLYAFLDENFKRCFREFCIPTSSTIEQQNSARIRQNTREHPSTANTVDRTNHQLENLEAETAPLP

human MOR = target: T2, human MOR (Homo sapiens, UniProt P35372); assay: Schild regression vs DAMGO in [35S]GTPγS binding assay, CHO membranes; format: biochemical; settings: for log (A'/A-1): Schild plot Figure S14d
T2 construct: expressed in transfected cells
T2 sequence (P35372 whole entry): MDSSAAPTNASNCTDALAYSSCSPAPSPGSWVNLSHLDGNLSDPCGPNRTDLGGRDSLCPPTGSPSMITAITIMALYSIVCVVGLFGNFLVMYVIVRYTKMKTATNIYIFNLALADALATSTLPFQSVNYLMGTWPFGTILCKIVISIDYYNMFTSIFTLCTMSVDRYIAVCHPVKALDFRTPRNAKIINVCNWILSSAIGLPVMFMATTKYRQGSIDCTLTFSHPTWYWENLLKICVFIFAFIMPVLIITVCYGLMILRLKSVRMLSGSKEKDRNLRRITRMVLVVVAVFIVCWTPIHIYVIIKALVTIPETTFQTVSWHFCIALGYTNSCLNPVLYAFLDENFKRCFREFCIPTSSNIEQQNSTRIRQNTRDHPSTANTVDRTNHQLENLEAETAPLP

mouse KOR, Gαi2 = target: T3, mouse KOR, Gαi2 (Mus musculus, UniProt P33534); assay: TRUPATH BRET G protein assay, Gαi2; format: cell-based; settings: TRUPATH
T3 construct: expressed in transfected cells; host or cells: HEK293T (ATCC, CRL-3216), transient
T3 sequence (P33534 whole entry): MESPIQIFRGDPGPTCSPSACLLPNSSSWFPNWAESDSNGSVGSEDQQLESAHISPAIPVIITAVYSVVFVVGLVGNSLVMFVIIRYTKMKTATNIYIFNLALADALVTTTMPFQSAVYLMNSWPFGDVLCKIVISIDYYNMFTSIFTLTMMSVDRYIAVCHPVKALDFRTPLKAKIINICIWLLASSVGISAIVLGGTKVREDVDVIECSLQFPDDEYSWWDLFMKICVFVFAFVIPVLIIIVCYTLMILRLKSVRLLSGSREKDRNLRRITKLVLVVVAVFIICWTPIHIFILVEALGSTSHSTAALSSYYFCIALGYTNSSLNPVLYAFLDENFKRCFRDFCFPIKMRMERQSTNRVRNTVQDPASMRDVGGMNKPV

mouse KOR, Gαi3 = mouse KOR, Gαi3 (Mus musculus, UniProt P33534); assay: TRUPATH BRET G protein assay, Gαi3; format: cell-based; settings: read-out: Emax (%) Gαi3
mouse KOR, Gαi3, sequence (P33534 whole entry): as above
mouse KOR, Gαi3, sequence (P08754 2-354 partner): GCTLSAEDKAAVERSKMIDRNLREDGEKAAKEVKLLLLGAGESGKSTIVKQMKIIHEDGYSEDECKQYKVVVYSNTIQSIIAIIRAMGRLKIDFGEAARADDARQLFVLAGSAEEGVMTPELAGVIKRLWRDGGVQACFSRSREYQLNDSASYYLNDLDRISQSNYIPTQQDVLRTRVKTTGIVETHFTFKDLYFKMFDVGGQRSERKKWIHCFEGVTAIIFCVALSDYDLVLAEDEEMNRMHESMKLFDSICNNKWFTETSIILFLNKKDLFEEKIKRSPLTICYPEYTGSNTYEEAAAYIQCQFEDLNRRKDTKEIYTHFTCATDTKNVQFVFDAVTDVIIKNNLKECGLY

mouse KOR, GαoA = mouse KOR, GαoA (Mus musculus, UniProt P33534); assay: TRUPATH BRET G protein assay, GαoA; format: cell-based; settings: read-out: Emax (%) GαoA
mouse KOR, GαoA, sequence (P33534 whole entry): as the sequence (P33534 whole entry) above
mouse KOR, GαoA, sequence (P09471 2-354 partner): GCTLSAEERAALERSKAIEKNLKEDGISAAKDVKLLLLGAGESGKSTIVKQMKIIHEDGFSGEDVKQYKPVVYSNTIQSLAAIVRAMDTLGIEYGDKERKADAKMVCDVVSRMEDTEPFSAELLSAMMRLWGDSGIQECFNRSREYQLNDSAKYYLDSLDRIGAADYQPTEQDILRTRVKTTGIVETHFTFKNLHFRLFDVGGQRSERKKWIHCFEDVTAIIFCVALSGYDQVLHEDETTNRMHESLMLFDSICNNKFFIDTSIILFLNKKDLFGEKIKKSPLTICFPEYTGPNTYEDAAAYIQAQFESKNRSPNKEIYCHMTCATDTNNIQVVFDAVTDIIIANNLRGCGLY

mouse KOR, Gαz = mouse KOR, Gαz (Mus musculus, UniProt P33534); assay: TRUPATH BRET G protein assay, Gαz; format: cell-based; settings: Gαz subtype
mouse KOR, Gαz, sequence (P33534 whole entry): as the sequence (P33534 whole entry) above
mouse KOR, Gαz, sequence (P19086 2-355 partner): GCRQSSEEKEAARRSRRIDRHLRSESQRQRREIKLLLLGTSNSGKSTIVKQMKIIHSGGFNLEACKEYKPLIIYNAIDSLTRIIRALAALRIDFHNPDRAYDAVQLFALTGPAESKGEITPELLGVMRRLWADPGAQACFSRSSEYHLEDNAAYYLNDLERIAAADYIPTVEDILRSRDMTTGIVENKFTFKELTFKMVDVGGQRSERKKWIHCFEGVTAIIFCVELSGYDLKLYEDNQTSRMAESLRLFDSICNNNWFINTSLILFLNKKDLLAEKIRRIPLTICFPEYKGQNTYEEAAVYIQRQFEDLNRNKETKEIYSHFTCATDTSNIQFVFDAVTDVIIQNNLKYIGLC

male SWISS mice [1] = assay: Formalin test (pain behavior, phase II); format: in vivo, mouse; settings: for Formalin test (duration of pain behaviour): individual mice, listed as DNCP-ß-NalA (1)
male SWISS mice [2] = assay: Paw thickness 60 min after formalin injection; format: in vivo, mouse; settings: for Paw thickness: individual mice, listed as DNCP-ß-NalA (1)
Protocol: Sixty min after injection of formalin to male mice, maximal paw thickness of the right hind paw (i.e., formalin-injected hind paw) was measured using a digital micrometer (FixPoint, Vienna, Austria). Data are expressed in mm.

male SWISS mice [3] = assay: Rotarod test (motor coordination/sedation); format: in vivo, mouse; settings: DNCP-β-NalA(1) 3.8 and 7.6, U50,488 5.4 µmol kg^−1 s.c.
Protocol: The rotarod test was used to evaluate coordinated locomotion and potential sedation induced by test drugs. […] Male SWISS mice (8–10 weeks old, 30–35 g body weight, n = 21 mice) were habituated to the equipment in two training sessions (30 min apart) one day before testing. On the experimental day, male mice were placed on the rotarod, and treadmill was accelerated from 4 to 40 rotations-per-minute over a period of 5 min. […] Decreased latencies to fall in the rotarod test indicate impaired motor performance. A 300 s cut-off time was used. The rotarod data are expressed as percentage (%) changes from the rotarod latencies obtained before (baseline) and after drug administration (test, T) were calculated as 100*(T/B).

human KOR Q115A [4] = target: T4, human KOR Q115A (Homo sapiens, UniProt P41145, Q115A); format: cell-based; settings: HEK-293T
T4 construct: FLAG; expressed in transfected cells; host or cells: HEK293 / HEK293T, transient
T4 sequence (P41145 whole entry Q115A): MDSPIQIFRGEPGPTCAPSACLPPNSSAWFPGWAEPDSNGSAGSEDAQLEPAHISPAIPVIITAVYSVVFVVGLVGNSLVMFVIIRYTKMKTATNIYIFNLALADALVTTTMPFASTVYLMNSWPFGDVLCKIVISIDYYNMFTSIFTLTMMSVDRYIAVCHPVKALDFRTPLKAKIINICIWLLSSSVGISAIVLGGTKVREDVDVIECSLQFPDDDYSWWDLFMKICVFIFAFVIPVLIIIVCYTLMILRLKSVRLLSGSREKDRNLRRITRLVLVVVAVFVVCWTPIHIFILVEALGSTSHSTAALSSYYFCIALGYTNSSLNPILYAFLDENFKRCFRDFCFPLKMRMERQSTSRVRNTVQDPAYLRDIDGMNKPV

human KOR I135A = target: T5, human KOR I135A (Homo sapiens, UniProt P41145, I135A); format: cell-based; settings: HEK-293T
T5 construct: FLAG; expressed in transfected cells; host or cells: HEK293 / HEK293T, transient
T5 sequence (P41145 whole entry I135A): as the sequence (P41145 whole entry Q115A) above, with A115Q, I135A counted along it

human KOR M142A = target: T6, human KOR M142A (Homo sapiens, UniProt P41145, M142A); format: cell-based; settings: HEK-293T
T6 construct: FLAG; expressed in transfected cells; host or cells: HEK293 / HEK293T, transient
T6 sequence (P41145 whole entry M142A): as the sequence (P41145 whole entry Q115A) above, with A115Q, M142A counted along it

human KOR K227A = target: T7, human KOR K227A (Homo sapiens, UniProt P41145, K227A); format: cell-based; settings: HEK-293T
T7 construct: FLAG; expressed in transfected cells; host or cells: HEK293 / HEK293T, transient
T7 sequence (P41145 whole entry K227A): as the sequence (P41145 whole entry Q115A) above, with A115Q, K227A counted along it

human KOR Y320A [5] = target: T8, human KOR Y320A (Homo sapiens, UniProt P41145, Y320A); format: cell-based; settings: HEK-293T
T8 construct: FLAG; expressed in transfected cells; host or cells: HEK293 / HEK293T, transient
T8 sequence (P41145 whole entry Y320A): as the sequence (P41145 whole entry Q115A) above, with A115Q, Y320A counted along it

human KOR E209A = target: T9, human KOR E209A (Homo sapiens, UniProt P41145, E209A); format: cell-based; settings: HEK-293T, KOR E209A
T9 construct: FLAG; expressed in transfected cells; host or cells: HEK293 / HEK293T, transient
T9 sequence (P41145 whole entry E209A): as the sequence (P41145 whole entry Q115A) above, with A115Q, E209A counted along it

human KOR Y312A [6] = target: T10, human KOR Y312A (Homo sapiens, UniProt P41145, Y312A); format: cell-based
T10 construct: FLAG; expressed in transfected cells; host or cells: HEK293T
T10 sequence (P41145 whole entry Y312A): as the sequence (P41145 whole entry Q115A) above, with A115Q, Y312A counted along it

human KOR Q115A [7] = target: T4, human KOR Q115A; assay: BRET β-arrestin-2 biosensor assay; format: cell-based
human KOR I316A = target: T11, human KOR I316A (Homo sapiens, UniProt P41145, I316A); assay: BRET β-arrestin-2 biosensor assay; format: cell-based
T11 construct: FLAG; expressed in transfected cells; host or cells: HEK293 / HEK293T, transient
T11 sequence (P41145 whole entry I316A): as the sequence (P41145 whole entry Q115A) above, with A115Q, I316A counted along it

human KOR Y320A [8] = target: T8, human KOR Y320A; assay: BRET β-arrestin-2 biosensor assay; format: cell-based
human KOR F293A = target: T12, human KOR F293A (Homo sapiens, UniProt P41145, F293A); assay: BRET β-arrestin-2 biosensor assay; format: cell-based
T12 construct: FLAG; expressed in transfected cells; host or cells: HEK293 / HEK293T, transient
T12 sequence (P41145 whole entry F293A): as the sequence (P41145 whole entry Q115A) above, with A115Q, F293A counted along it

human KOR Y312A [9] = target: T10, human KOR Y312A; assay: BRET β-arrestin-2 biosensor assay; format: cell-based
human KOR [10] = target: T13, human KOR (Homo sapiens, UniProt P41145); assay: [35S]GTPγS binding assay, CHO membranes; format: biochemical; set-up: expressed in transfected cells
T13 sequence (P41145 whole entry): as the sequence (P41145 whole entry Q115A) above, with A115Q counted along it

human KOR [11] = target: T13, human KOR; assay: cell-based; set-up: expressed in transfected cells; host or cells: HEK293, transient; settings: HEK293, read-out: Emax β-arrestin-1 recruitment
mouse KOR = mouse KOR (Mus musculus, UniProt P33534); assay: cell-based; set-up: expressed in transfected cells; host or cells: HEK293T, transient; settings: HEK-293T, read-out: Emax β-arrestin-2 recruitment
mouse KOR, sequence (P33534 whole entry): as the sequence (P33534 whole entry) above
mouse KOR, sequence (P32121 whole entry partner): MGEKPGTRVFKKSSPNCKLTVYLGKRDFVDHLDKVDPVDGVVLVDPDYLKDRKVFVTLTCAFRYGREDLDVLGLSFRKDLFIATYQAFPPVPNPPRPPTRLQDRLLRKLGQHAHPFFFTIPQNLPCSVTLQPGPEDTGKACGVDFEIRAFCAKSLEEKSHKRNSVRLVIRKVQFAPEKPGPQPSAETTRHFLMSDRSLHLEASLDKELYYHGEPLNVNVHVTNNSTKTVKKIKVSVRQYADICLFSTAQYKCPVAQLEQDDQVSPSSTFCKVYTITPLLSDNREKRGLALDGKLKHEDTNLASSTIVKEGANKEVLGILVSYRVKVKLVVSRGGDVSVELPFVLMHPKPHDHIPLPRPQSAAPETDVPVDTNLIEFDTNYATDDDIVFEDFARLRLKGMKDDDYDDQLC

[12] = nor-BNI 13.6 µmol kg^−1 s.c. pretreatment

C=CCN1CC[C@]23c4c5ccc(O)c4O[C@H]2[C@H](NC(=O)[C@@H](Cc2ccccc2)NC(=O)[C@@H](NC(=O)[C@@H]2CSCC(=O)N[C@@H](Cc4ccc(O)cc4)C(=O)N[C@@H](C)C(=O)N[C@H](Cc4ccc(O)cc4)C(=O)N[C@@H]([C@@H](C)O)C(=O)N[C@@H]([C@@H](C)O)C(=O)N2)[C@@H](C)O)CC[C@@]3(O)[C@H]1C5 [DNCP-β-NalA(1)] ({CH2CO}-YA[dY]TTCT[dF]-X1; thioether N-6)
log (A'/A-1) (mouse MOR; log B -6.5): 2.497 | log (A'/A-1) (mouse MOR; log B -7): 1.821 | log (A'/A-1) (mouse MOR; log B -7.5): 1.578 | log (A'/A-1) (mouse MOR; log B -8): 1.074 | average functional affinity (mouse MOR): 0.8 nM | average functional affinity (mouse MOR; authors' response in peer review file): 0.794 nM | Schild linear regression slope (mouse MOR; vs DAMGO): 0.9 | log (A'/A-1) (human MOR; log B -7): 1.45 | log (A'/A-1) (human MOR; log B -7.5): 0.36 | log (A'/A-1) (human MOR; log B -8): -0.07 | average functional affinity (human MOR; from pA2): 13 nM | Schild linear regression slope (human MOR; vs DAMGO): 1.5 | Emax (mouse KOR, Gαi2): 62 ± 6% | Emax (mouse KOR, Gαi3): 77 ± 3% | Emax (mouse KOR, GαoA): 56 ± 7% | highest potency (mouse KOR, Gαz): picomolar range | Formalin test (duration of pain behaviour) (male SWISS mice [1]; 0.8 µmol/kg): 234 s and 278 s and 189 s and 251 s and 382 s and 247 s | Formalin test (duration of pain behaviour) (male SWISS mice [1]; 1.9 µmol/kg): 208 s and 50 s and 189 s and 169 s and 167 s and 252 s | antagonism of antinociception by nor-BNI (male SWISS mice [1]; [12]): significantly reversed the antinociceptive response | antinociceptive ED50 (male SWISS mice [1]; s.c., male mice): 1.89 µmol/kg | effect on pain behavior (male SWISS mice [1]; s.c., male mice): dose-dependent reduction in the pain behavior | Paw thickness (male SWISS mice [2]; 0.8 µmol/kg): 3.47 mm and 4.51 mm and 3.9 mm and 4.44 mm and 3.64 mm and 4.36 mm | reduction of paw thickness vs saline (male SWISS mice [2]; 1.9 µmol kg^−1 s.c.): 12 ± 2% | Paw thickness (male SWISS mice [2]; 1.9 µmol/kg): 4.04 mm and 4.14 mm and 3.53 mm and 3.7 mm and 3.82 mm | reduction of paw thickness vs saline (male SWISS mice [2]; 3.8 µmol kg^−1 s.c.): 17 ± 3% | antagonism of anti-inflammatory effect by nor-BNI (male SWISS mice [2]; [12]): significantly reversed by pre-treatment with nor-BNI | rotarod performance / motor behavior (male SWISS mice [3]): no changes in the motor behavior | Emax (human KOR Q115A [4]): 90.2 ± 1.46% | Emax (human KOR I135A): 45.8 ± 1.95% | Emax (human KOR M142A): 69.4 ± 1.97% | Emax (human KOR K227A): 47.9 ± 1.19% | Emax (human KOR Y320A [5]): 86.8 ± 2.05% | Emax (human KOR E209A): 99.31 ± 0.52% | Emax (human KOR Y312A [6]; HEK-293T, KOR Y312A): 82.46 ± 0.65% | loss of potency in G protein activation (human KOR Y312A [6]; Y312A vs WT): 4 fold | Emax (human KOR Q115A [7]): 60 ± 1.71% | Emax (human KOR I316A): 22.7 ± 1.59% | Emax (human KOR Y320A [8]): 83.5 ± 4.81% | Emax (human KOR F293A): 26.5 ± 1.01% | Emax (%) β-arrestin-2 (human KOR Y312A [9]): devoid of arrestin recruitment | BRET-βarr2 recruitment (human KOR Y312A [9]; Log [ligand] (M) -5, replicates): 0.2189 and 0.2059 and 0.2229 and 0.2169 | BRET-βarr2 recruitment (human KOR Y312A [9]; Log [ligand] (M) -7, replicates): 0.2499 (2×) and 0.2479 and 0.2279 and 0.2289 and 0.2269 | BRET-βarr2 recruitment (human KOR Y312A [9]; Log [ligand] (M) -8, replicates): 0.2479 and 0.2309 and 0.2579 and 0.2119 and 0.2179 and 0.2099 | BRET-βarr2 recruitment (human KOR Y312A [9]; Log [ligand] (M) -9, replicates): 0.2369 and 0.2529 and 0.2379 and 0.2309 and 0.2499 and 0.2069 | BRET-βarr2 recruitment (human KOR Y312A [9]; Log [ligand] (M) -10, replicates): 0.2429 and 0.2419 and 0.2489 and 0.2119 and 0.2309 and 0.2049 | BRET-βarr2 recruitment (human KOR Y312A [9]; Log [ligand] (M) -11, replicates): 0.2319 and 0.2289 and 0.2379 and 0.2249 and 0.2229 and 0.2019 | BRET-βarr2 recruitment (human KOR Y312A [9]; Log [ligand] (M) -12, replicates): 0.2219 and 0.2179 and 0.2429 and 0.2239 and 0.2299 and 0.2119 | Emax (human KOR [10]): 83% | Emax (human KOR [11]): 30% | Emax (mouse KOR): 41%
